This is an account of results in patent US20130053435A1, “Methods of Treating Alcohol Intoxication, Alcohol Use Disorders and Alcohol Abuse Which Comprises the Administration of Dihydromyricetin” (priority 2011, published 2013).

This assay has as its system T1, GABAARs.
T1 construct: rows headed: effect on GABAAR-currents; effect on GABAAR-currents; other: zolpidem 0.3 μM, DGCs of EtOH group
Nature of the assay: Whole-cell patch-clamp, DGCs in hippocampal slices 48 hr after in vivo treatment. The class given is cell-based, rat. Conditions: zolpidem 0.3 μM. The method, then: Transverse slices (400 μm) of dorsal hippocampus were obtained with a Vibratome (VT 100, Technical Products International, St. Louis, Mo.) and standard techniques known in the art. Slices were continuously perfused with artificial cerebrospinal fluid (ACSF). See Liang, J., et al. (2007) J Neurosci 27:12367-12377.
Whole-cell patch-clamp recordings were obtained at 34±0.5° C. from cells located in the DG layer at a holding potential of −70 mV, during perfusion with artificial cerebrospinal fluid (ACSF, 125 mM NaCl, 2.5 mM KCl, 2 mM CaCl2, 2 mM MgCl2, 26 mM NaHCO3, and 10 mM D-glucose). The ACSF was continuously bubbled with 95% O2-5% CO2 to ensure adequate oxygenation of slices and a pH of 7.4. Patch electrodes were pulled from thin-wall borosilicate glass pipettes with resistances of 7.5-9 MΩ and were filled with pipette solution (i.e. 137 mM CsCl, 2 mM MgCl2, 1 mM CaCl2, 11 mM EGTA, 10 mM HEPES and 3 mM ATP, pH adjusted to 7.30 with CsOH). Signals were recorded in voltage-clamp mode with a […] amplifier (Molecular Devices, Sunnyvale, Calif.). Whole cell access resistances were in the range of <25 MΩ before electrical compensation by about 70%. During voltage-clamp recordings, access resistance was monitored by measuring the size of the capacitative transient in response to a 5 mV step command and the data were abandoned if changes >20% were encountered. At least 10 min was allowed for equilibration of the pipette solution with the intracellular milieu before commencing mIPSC recordings. Intracellular signal was low-pass filtered at 3 kHz and data were acquired with Digidata 1440A and software CLAMPEX 10 (Molecular Devices) at a sampling frequency of 20 kHz.
Pharmacologically-isolated GABAAR-mediated mIPSCs were recorded as previously described (Liang (2007) and Shen (2011)). […] Data were analyzed using the Clampfit (Version 9.0, Molecular Devices) and the MiniAnalysis Program (versions 6.0.7, Synaptosoft, Decatur, Ga.).
The MiniAnalysis program (Synaptosoft, Decatur, Ga.) was used to analyze mIPSCs. Itonic is the averaged baseline currents of a given recording period. Itonic amplitude was calculated as the difference between the holding currents measured before and after picrotoxin (100 μM) or bicuculline (10 μM). See Wei, W., et al. (2004) J Neurosci 24, 8379-8382; Liang (2007); and Shen (2011). Briefly, the recordings were low-pass filtered off-line (Clampfit software) at 2 kHz. The mIPSCs were detected (Mini Analysis Program, version 6.0.7) with threshold criteria of 8 pA amplitude and 20 pA*ms charge transfer. The frequency of mIPSCs was determined from all automatically detected events in a given 100 s recording period. For kinetic analysis, only single event mIPSCs with a stable baseline, sharp rising phase (10 to 90% rise time), and exponential decay were chosen during visual inspection of the recording trace. Double and multiple peak mIPSCs were excluded. At least 100 individual mIPSC events were recorded under each experimental condition. The mIPSC kinetics was obtained from analysis of the averaged chosen single events aligned with half rise time in each cell. Decay time constants were obtained by fitting a double exponential to the falling phase of the averaged mIPSCs. Itonic magnitudes were obtained from the averaged baseline current of a given recording period. Itonic amplitude was calculated as the difference between the holding currents measured before and after the application of picrotoxin (50 μM) or bicuculline (10 μM). See Liang J et al (2007); Shen (2011); Hamann (2002); and Mangan P S, et al. (2005) Mol Pharmacol 67(3):775-788. The investigator performing the recordings and mIPSC analysis was blind to the treatment (vehicle, EtOH, E+D, or D) that the rats received.
After 48 hr withdrawal, whole-cell GABAAR-mediated currents were recorded on DGCs in hippocampal slices. In the vehicle group, bath application of EtOH (60 mM) enhanced Itonic from 28.8±3.1 to 62.1±3.3 pA (FIG. 13, panels A, G). […]

Structures are written as SMILES.

Turning to `Cc1ccc(-c2nc3ccc(C)cn3c2CC(=O)N(C)C)cc1` [Zolpidem, zolpidem, reference compound], the “effect on GABAAR-currents” value is, setting by setting: (DGCs of DHM group as in vehicle group) “potentiation”; (DGCs of EtOH group) “did not affect GABAAR-currents”.
